Source: US10596264B2, “Peptides with viral infection enhancing properties and their use” (Genethon, priority 2011, dated 2020)
Where no end group is shown, it is not given here.

Tests used:
[1] = test system: hCD34+ cells; conditions: for Cytotoxic effect of the peptides: hCD34+ cells transduced with RD114TR-LV or GALVTR-MLV, peptide 12 μg/ml
[2] = test system: human CD34+ cells; assay type: cell-based
[3] = test system: 293T cells; experiment: Transfection of 293T cells with pEGFP-C1 in presence of peptides; assay type: cell-based; conditions: peptide 24 μg/ml; 1 μg pEGFP-C1; 48 h
Protocol: FIG. 11. Transfection of 293T cells with pEGFP in presence of LAH4-A4, LAH4-L1 or K2-L10A12-K2 peptides. pEGFP-C1 (1 μg) was mixed in 50 μl of 150 mM NaCl solution with either 3 μg, 4.5 μg, 6 μg or 9 μg of LAH4-A4 or 6 μg of LAH4-L1 or 6 μg of K2-L10A12-K2. Next, the DNA/peptide mix was diluted in 200 μl of DMEM without FCS and loaded onto cell monolayers. 3 hours post-transfection, the medium was replaced with DMEM containing 10% FCS. 48 h later, transfection efficiencies were estimated by monitoring GFP expression using flow cytometry. Data are the average of two independent experiments performed in duplicate with SD.
293T cells (1.5×10E5/well) were plated in 48-well plates the day before transfection. For transfection, 1 μg of pEGFP-C1 was mixed with the desired amount of peptide in 50 μl of 150 mM NaCl solution, vortexed and incubated 15 min at room temperature. Next, the DNA/peptide mix was diluted in 200 μl of DMEM without FCS and loaded onto cell monolayers. 3 hours post-transfection, the medium was replaced with DMEM containing 10% FCS. 48 h later, transfection efficiency was estimated by monitoring GFP expression using flow cytometry.

[4] = test system: human hematopoietic cells engraftment; conditions: hCD34+ cells transduced in presence of 12 μg/ml LAH4-L1
[5] = test system: lentiviral vectors; conditions: Wurm et al., 2010; cited from earlier work

Question: Which “Cytotoxicity (mortality, 7-AAD)” value [1] does the source give for “KKALLHAALAHLLALAHHLLALLKKA-NH2 [LAH4-A4]” here?
Answer: The value was “no apparent cytotoxicity”.

Question: And the “Cytotoxicity (mortality, 7-AAD) in dose-response experiment” value [1]?
Answer: Its value is “no apparent cytotoxicity”.

Question: What about the “Cytotoxic effect of the peptides” value [1] of the same substance?
Answer: Its value is “did not observe any cytotoxic effect”.

Question: What does the source list for “KKALLAAALAALLALAAALLALLKKA (K2-L10A12-K2)”?
Answer: Transduction efficiency compared with LAH4-A4 (in words) [2]: still able to promote some lentiviral transduction; hCD34+ transduction level compared to LAH4-A4 [2]: 17%; Transfection of 293T cells with GFP plasmid [3]: unable to promote cell transfection

Question: Which results are given for “KKALLAHALHLLALLALHLAHALKKA-NH2 [LAH4-L1]”?
Answer: Cytotoxic effect (mortality, 7-AAD) [1]: did not observe any cytotoxic effect; Cytotoxic effect of the peptides [1]: did not observe any cytotoxic effect; Cytotoxic or deleterious effect on human immune system reconstitution [4]: did not observed any cytotoxic or deleterious effect

Question: Which “Transduction efficiency compared with LAH4-L1 (in words)” value [2] does the source give for ALLAHALHLLALLALHLAHALKKA (LAH4-L1-dKN) here?
Answer: The value was “not detectable”.

Question: Which “Transduction efficiency compared with LAH4-A4 (in words)” value [2] does the source give for “KKALLHAALAHLLALAHHLLALLKK (LAH4-A4-d1aa)” here?
Answer: Its value is “slightly decreases the efficiency”.

Question: With “KKLLLHALLAHLLALLHHLLALLKKL (LAH4-A4-Leu)” as the substance, how does the “Transduction efficiency compared with LAH4-A4 (in words)” value [2] read?
Answer: Its value is “two times less potent than LAH4-A4”.

Question: For KKALLAAALAALLALAHHLLALLKKA (LAH2-A4), which “Transduction efficiency compared with LAH4-A4 (in words)” value [2] is on record?
Answer: Its value is “not functional”.

Question: With KALLHAALAHLLALAHHLLALLKKA (LAH4-A4-K1N) as the substance, how does the “hCD34+ transduction level compared to LAH4-A4” value [2] read?
Answer: The value was 60%.

Question: With “RRALLAHALHLLALLALHLAHALRRA-NH2 [LAH4-L1-R]” as the substance, how does the “Cytotoxicity (mortality, 7-AAD)” value [1] read?
Answer: Its value is “no apparent cytotoxicity”.

Question: Which “Capacity to promote transduction of hCD34+ cells with GALVTR-LVs, ranking within L and A series of isomers” value [2] does the source give for “LAH4-L4: L series peptide with hydrophilic angle of 140°; b61: LAH4-L4 peptide of SEQ ID NO:36; possibly LAH4-L4iso is meant (KKALLALALHHLALLAHLLALHLKKA; LAH4-L4) [L series peptide with hydrophilic angle of 140°; possibly LAH4-L4iso is meant]” here?
Answer: The value was “most efficient”.

Question: For “KKALLAKALKLLALLALKLAKALKKA-NH2 [LAK4-L1]”, which “Cytotoxicity (mortality, 7-AAD)” value [1] is on record?
Answer: Its value is “not the consequence of a strong cytotoxic effect”.

Question: With KKLLHAALAHLLALAHHLLALLKK (LAH4-A4-d2aa) as the substance, how does the “hCD34+ transduction level compared to LAH4-A4” value [2] read?
Answer: Its value is 30%.

Question: With “KKALLHLALLHAALLAHHLALALKKA-NH2 [LAH4-L4ISO]” as the substance, how does the “Cytotoxic effect of the peptides” value [1] read?
Answer: The value was “did not observe any cytotoxic effect”.

Question: With HHALLAHALHLLALLALHLAHALHHA (LAH8-L1) as the substance, how does the “Transduction efficiency compared with LAH4-L1 (in words)” value [2] read?
Answer: Its value is “detrimental”.

Question: With “KKALLHAALAHLLALAAALLALLKKA-NH2 [LAH2-A6]” as the substance, how does the “Cytotoxicity (mortality, 7-AAD)” value [1] read?
Answer: Its value is “no apparent cytotoxicity”.

Question: With “KKALLHALLAHLAALLHALLAHLKKA-NH2 [LAH4-A5]” as the substance, how does the “Cytotoxic effect of the peptides” value [1] read?
Answer: The value was “did not observe any cytotoxic effect”.

Question: Which “Transduction efficiency compared with LAH4-A4 (in words)” value [2] does the source give for “KKKLLHAALAHLLALAHHLLALLKKA (LAH4-A4-K3N)” here?
Answer: The value was “as efficient as LAH4-A4”.

Question: With “ALLHAALAHLLALAHHLLALLKKA-NH2 [LAH4-A4-dKN]” as the substance, how does the “Cytotoxicity (mortality, 7-AAD)” value [1] read?
Answer: Its value is “not the consequence of a strong cytotoxic effect”.

Question: For “KKALLHAALAHLLPLAHHLLALLKKA (LAH4-A4-P14)”, which “Lentiviral transduction abolished relative to LAH4-A4” value [2] is on record?
Answer: The value was 80%.

Question: Which “Transduction efficiency compared with LAH4-L1 (in words)” value [2] does the source give for “ALLAHALHLLALLALHLAHALA (LAH4-L1-dK) [LAH4-L 1-dK]” here?
Answer: The value was “not detectable”.

Question: With KKALLAHALHLLALLALHLAHALA (LAH4-L1-dKC) as the substance, how does the “Transduction efficiency compared with LAH4-L1 (in words)” value [2] read?
Answer: The value was “as efficiently as LAH4-L1”.

Question: Which “Ability to promote the transduction of lentiviral vectors” value [5] does the source give for “GIHKQKEKSRLQGGVLVNEILNHMKRATQIPSYKKLIMY (SEVI) [human Semen Enhancer of Viral Infection, fragment of the human prostatic acid phosphatase; not amidated]” here?
Answer: The value was “able to promote the transduction of lentiviral vectors”.
